Assay results reported in publication PMC8658948, “Exploring Amantadine Derivatives as Urease Inhibitors: Molecular Docking and Structure–Activity Relationship (SAR) Studies” (Molecules, 2021).
Read-outs that look alike come from different tables or passages of the source.

Experiments:
Jack bean urease [1] = target: T1, Jack bean urease (Canavalia ensiformis, UniProt P07374); assay: biochemical
Method: The amount of NH3 produced with indophenol’s method reported in the literature was used to estimate Jack bean urease activity. In a 96-well plate, reaction mixtures containing 20 µL of Jack bean urease at 5 U/mL and 20 µL of compounds in 50 µL of potassium phosphate buffer (100 mM urea, 10 mM K2HPO4, 1 mM EDTA, and 10 mM LiCl, pH 8.2) were incubated for 30 min at 37 °C. Briefly, 50 μL each of phenol reagents (1%, w/v phenol and 0.005%, w/v sodium nitroprusside) and 50 μL of alkali reagent (0.5%, w/v NaOH and 0.1% NaOCl were added to each well. The absorbance at 625 nm was evaluated after 10 min by utilizing a microplate reader (OPTIMax, Tunable). Each of the reactions was accomplished in triplicate. The urease inhibition activities were calculated using the following formula:(1) Urease inhibition activity %=ODcontrol−ODsample×100/ODcontrol where ODcontrol and ODsample represent the optical densities in the absence and presence of sample, respectively, by using thiourea as standard.

[2] = DPPH free radical scavenging assay; conditions: 100 µg/mL, mean (SEM)
Method: The 2,2-diphenyl-1-picrylhydrazyl (DPPH) test was used to assess radical scavenging activity. By using ascorbic acid as a reference inhibitor, 100 µL of DPPH ([…]), 20 µL of escalating concentrations of test compounds, and the volume adjusted to 200 µL in each well with methanol were incubated for 30 min at room temperature. At 517 nm, an OPTI Max Tunable microplate reader was used to perform assay measurements. The % inhibition caused by the investigated inhibitors was calculated after response rates were compared.

Jack bean urease [3] = target: T1, Jack bean urease; assay: Kinetic analysis of urease inhibition (Lineweaver-Burk plot); format: biochemical; conditions: for Vmax: substrate urea
Description: The kinetic studies of the enzyme by the Lineweaver–Burk plot of 1/V versus 1/[S] in the presence of different compound concentrations produced a series of straight lines (Figure 3A). […] Thus, compounds 3f inhibit the urease non-competitively in order to form an enzyme inhibitor complex.
Based on IC50 values, compound 3j was identified as the most powerful. Changing the concentration of urea at different concentrations of 3j (0.00, 0.0042, 0.0085, and 0.017 M) was used to study kinetics. For urease kinetics, the urea concentration was quickly adjusted from 100, 50, 25, 12.5, 6.25, and 3.12 mM. The highest preliminary velocities were determined from initial linear portion of absorbance up to 10 min after the addition of enzyme at per minute’s interval. The inhibition type was determined by Lineweaver-Burk plot (1/V) versus 1/[S] mM^−1. The EI dissociation constant Ki was ascertained by secondary plot of 1/V against inhibitor concentration. […] The results were processed by using SoftMaxPro.

T1 sequence (P07374 whole entry, looked up): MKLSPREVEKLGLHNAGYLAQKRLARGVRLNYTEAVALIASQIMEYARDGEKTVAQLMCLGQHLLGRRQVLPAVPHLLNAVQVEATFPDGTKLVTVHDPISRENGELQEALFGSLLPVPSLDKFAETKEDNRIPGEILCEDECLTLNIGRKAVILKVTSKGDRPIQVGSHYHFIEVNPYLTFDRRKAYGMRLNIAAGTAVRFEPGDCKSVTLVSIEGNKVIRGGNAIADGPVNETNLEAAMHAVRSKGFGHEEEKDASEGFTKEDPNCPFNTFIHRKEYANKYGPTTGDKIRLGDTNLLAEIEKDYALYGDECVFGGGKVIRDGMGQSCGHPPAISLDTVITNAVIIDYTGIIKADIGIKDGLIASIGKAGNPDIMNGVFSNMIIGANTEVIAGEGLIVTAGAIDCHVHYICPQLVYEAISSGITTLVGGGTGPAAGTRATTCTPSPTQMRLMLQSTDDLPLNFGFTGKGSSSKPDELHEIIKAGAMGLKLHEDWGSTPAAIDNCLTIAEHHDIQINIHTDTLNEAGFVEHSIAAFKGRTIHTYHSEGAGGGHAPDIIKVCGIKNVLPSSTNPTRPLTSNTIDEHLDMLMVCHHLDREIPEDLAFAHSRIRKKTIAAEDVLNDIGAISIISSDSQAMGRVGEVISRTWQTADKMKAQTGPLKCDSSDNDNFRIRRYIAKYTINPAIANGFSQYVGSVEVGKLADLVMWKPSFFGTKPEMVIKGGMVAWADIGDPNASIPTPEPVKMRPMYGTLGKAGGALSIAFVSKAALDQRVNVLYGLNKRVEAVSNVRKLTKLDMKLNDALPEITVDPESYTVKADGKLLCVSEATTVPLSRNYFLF

NC(N)=S [Thiourea, reference compound]
IC50 (Jack bean urease [1]; Jack bean urease, 30 min at 37 °C, pH 8.2, mean (SEM), read-out: Urease Activity IC50 ± SEM): 4740 nM

O=C(NC(=S)NC12CC3CC(CC(C3)C1)C2)c1cc([N+](=O)[O-])cc([N+](=O)[O-])c1 [Compound 3i, N-(Adamantan-1-ylcarbamothioyl)-3,5-dinitrobenzamide]
melting point: 210 to 211 °C | Free radical % Scavenging [2]: 5.91 (0.05) % | IC50 (Jack bean urease [1]): 10 nM

CCCCCCCC(=O)NC(=S)NC12CC3CC(CC(C3)C1)C2 [Compound 3j, N-(Adamantan-1-ylcarbamothioyl)octanamide]
melting point: 158 to 159 °C | Free radical % Scavenging [2]: 9.96 (0.06) % | Ki (Jack bean urease [3]): 7 nM | Inhibition Type (Jack bean urease [3]; Lineweaver-Burk plot): Non-Competitive | Vmax (Jack bean urease [3]; inhibitor dose 0.0042 µM): 0.001561 ΔA/Min | Vmax (Jack bean urease [3]; inhibitor dose 0.0085 µM): 0.001224 ΔA/Min | Vmax (Jack bean urease [3]; inhibitor dose 0.017 µM): 0.001208 ΔA/Min

CCCC(=O)NC(=S)NC12CC3CC(CC(C3)C1)C2 [Compound 3c, N-(Adamantan-1-ylcarbamothioyl)butyramide]
melting point: 136 to 137 °C | Free radical % Scavenging [2]: 2.51 (0.00) % | IC50 (Jack bean urease [1]): 30 nM

O=C(NC(=S)NC12CC3CC(CC(C3)C1)C2)c1ccc(F)cc1 [Compound 3a, N-(Adamantan-1-ylcarbamothioyl)-4-fluorobenzamide]
melting point: 180 to 182 °C | Free radical % Scavenging [2]: 4.18 (0.03) % | IC50 (Jack bean urease [1]): 10 nM

CCCCCCC(=O)NC(=S)NC12CC3CC(CC(C3)C1)C2 [Compound 3h, N-(Adamantan-1-ylcarbamothioyl)heptanamide]
melting point: 149 to 151 °C | Free radical % Scavenging [2]: 15.36 (0.01) % | IC50 (Jack bean urease [1]): 10 nM

CCCCC(=O)NC(=S)NC12CC3CC(CC(C3)C1)C2 [Compound 3f, N-(Adamantan-1-ylcarbamothioyl)pentanamide]
melting point: 141 to 142 °C | Free radical % Scavenging [2]: 4.26 (0.00) % | IC50 (Jack bean urease [1]): 30 nM

O=C(NC(=S)NC12CC3CC(CC(C3)C1)C2)c1ccc(Cl)cc1 [Compound 3e, N-(Adamantan-1-ylcarbamothioyl)-4-chlorobenzamide]
melting point: 182 to 183 °C | Free radical % Scavenging [2]: 13.36 (0.01) % | IC50 (Jack bean urease [1]): 30 nM

O=C(NC(=S)NC12CC3CC(CC(C3)C1)C2)c1ccc(Cl)cc1Cl [Compound 3b, N-(Adamantan-1-ylcarbamothioyl)-2,4-dichlorobenzamide]
melting point: 204 to 205 °C | Free radical % Scavenging [2]: 1.46 (0.02) % | IC50 (Jack bean urease [1]): 10 nM

O=C(NC(=S)NC12CC3CC(CC(C3)C1)C2)c1ccccc1Cl [Compound 3g, N-(Adamantan-1-ylcarbamothioyl)-2-chlorobenzamide]
melting point: 185 to 187 °C | Free radical % Scavenging [2]: 1.12 (0.03) % | IC50 (Jack bean urease [1]): 8.7 nM

COc1ccc(C(=O)NC(=S)NC23CC4CC(CC(C4)C2)C3)cc1 [Compound 3d, N-(Adamantan-1-ylcarbamothioyl)-4-methoxybenzamide]
melting point: 178 to 179 °C | Free radical % Scavenging [2]: 1.86 (0.01) % | IC50 (Jack bean urease [1]): 20 nM

O=C1O[C@H]([C@@H](O)CO)C(O)=C1O [Vitamin C, ascorbic acid, reference compound]
Free radical % Scavenging [2]: 95.15 (0.05) %
